{"source": "patent US20240309003A1", "about": "“HETEROCYCLIC COMPOUNDS AS TRIGGERING RECEPTOR EXPRESSED ON MYELOID CELLS 2 AGONISTS AND METHODS OF USE” (Vigil Neuroscience, Inc., priority 2021, published 2024)"}
{"molecular_target": "T1, human TREM2 (Homo sapiens, UniProt Q9NZC2)", "T1 construct": "expressed in transfected cells; host or cells: HEK293T", "T1 sequence (Q9NZC2 19-230)": "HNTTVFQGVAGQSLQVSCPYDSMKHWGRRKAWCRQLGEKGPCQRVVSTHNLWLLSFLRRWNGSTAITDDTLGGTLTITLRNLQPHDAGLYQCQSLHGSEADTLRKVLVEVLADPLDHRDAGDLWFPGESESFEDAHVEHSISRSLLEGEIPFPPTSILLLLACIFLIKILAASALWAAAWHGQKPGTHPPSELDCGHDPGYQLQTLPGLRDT", "T1 sequence (O43914 22-113 partner)": "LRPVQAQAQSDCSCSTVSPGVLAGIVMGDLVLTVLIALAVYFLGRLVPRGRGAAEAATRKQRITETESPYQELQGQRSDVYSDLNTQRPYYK", "experiment": "TREM2 agonist potency by cellular phosphorylation of Syk (AlphaLisa) in HEK293T-hTREM2 cells", "type": "cell-based", "conditions": "HEK293 cells expressing human TREM2 and DAP12, Table D", "procedure": "(§1) In Vitro Measurement of Triggering Receptor Expressed on Myeloid Cells 2 Activity Using Cellular Phosphorylation of Spleen Tyrosine Kinase (“Syk”) Assays\n(§2) Measurement of TREM2 agonist potency was done using a HEK cell line expressing human TREM2 and DAP12 (HEK293T-hTREM2 cells). Binding of small molecules to, and activation of, TREM2 increases the phosphorylation of Syk. The resultant levels of Syk phosphorylation are measured using a commercial AlphaLisa reagent kit. To perform the assay, HEK-hTREM2 cells were plated at 14,000 cells per well in a 384 well plate, in 25 μL of complete growth media and incubated at 37° C., 5% CO2 for 20-24 hours.\n(§3) Prior to the assay, test compounds were diluted in the 384 well plates in assay buffer and allowed to equilibrate for 30 minutes. Growth media was removed from cell plates by inversion on blotting paper, and 25 μL of test articles in assay buffer was added to cells. Cells were incubated for 45 minutes at room temperature. After 45 minutes, assay buffer was removed and 10 μL of lysis buffer was added. Plates were shaken for 20 minutes at 350 RPM at room temperature. After complete lysis, AlphaLisa reagents were added to the lysate, and fluourescence intensity was measured using a Perkin Elmer Envision plate reader. Intensities were used to generate a standard curve, and % activation was calculated. Curve fitting was performed using Prism v9 software, log(agonist) vs response-variable slope (four parameters), and EC50s were calculated from the curve fit.\n(§4) This assay may be used to test any of the compounds described herein to assess and characterize a compound's ability to act as an agonist of TREM2.", "units": {"EC50": "nM"}}
{"smiles": "[2H]C1([2H])C[C@H](c2nc(-c3ccc(F)cc3F)c3nc(C)c(C)nc3n2)C[C@]([2H])(c2cnn(C3CC3)c2)O1", "note": "[Example 190, 2-((2R,4S)-2-(1-cyclopropyl-1H-pyrazol-4-yl)tetrahydro-2H-pyran-4-yl-2,6,6-d3)-4-(2,4-difluorophenyl)-6,7-dimethylpteridine]", "EC50": "< 50"}
{"smiles": "[2H]C([2H])([2H])n1cc([C@H]2C[C@@H](c3nc(-c4ccc(F)cc4F)c4nc(C)c(C)nc4n3)CCO2)cn1", "note": "[Example 156]", "EC50": "50 to 500"}
{"smiles": "Cc1cnc2c(C34CC(C(F)(F)F)(C3)C4)nc(N3C[C@@H](C)O[C@@H](c4cnn(C5CC5)c4)C3)nc2n1", "note": "(racemic) [Example 49, 2-(1-cyclopropyl-1H-pyrazol-4-yl)-6-methyl-4-(7-methyl-4-(3-(trifluoromethyl)bicyclo[1.1.1]pentan-1-yl)pteridin-2-yl)morpholine]", "EC50": "< 50"}
{"smiles": "Cc1cc2nc([C@H]3CCO[C@@H](c4cnn(C5CC5)c4)C3)nc(-c3ccc(Cl)cc3F)c2nc1C", "note": "[Example 222, 4-(4-chloro-2-fluorophenyl)-2-((2R,4S)-2-(1-cyclopropyl-1H-pyrazol-4-yl)tetrahydro-2H-pyran-4-yl)-6,7-dimethylpyrido[3,2-d]pyrimidine]", "EC50": "500 to 3000"}
{"smiles": "Cc1nc2cc([C@@H]3CCO[C@H](c4cnn(C5CC5)c4)C3)cc(-c3ccc(Cl)cc3F)c2nc1C", "note": "[Example 227, 5-(4-chloro-2-fluorophenyl)-7-((2S,4R)-2-(1-cyclopropyl-1H-pyrazol-4-yl)tetrahydro-2H-pyran-4-yl)-2,3-dimethylquinoxaline]", "EC50": "500 to 3000"}
{"smiles": "COc1ncccc1[C@H]1C[C@@H](c2nc(C34CC(C(F)(F)F)(C3)C4)c3nc(C)c(C)nc3n2)CCO1", "note": "[Example 144, 2-((2R,4S)-2-(2-methoxypyridin-3-yl)tetrahydro-2H-pyran-4-yl)-6,7-dimethyl-4-(3-(trifluoromethyl)bicyclo[1.1.1]pentan-1-yl)pteridine]", "EC50": "50 to 500"}
{"smiles": "Cc1cc([C@H]2C[C@@H](c3nc(-c4cc(F)c(Cl)c(F)c4)c4nc(C)c(C)nc4n3)CCO2)ccn1", "note": "[Example 133, 4-(4-chloro-3,5-difluorophenyl)-6,7-dimethyl-2-((2R,4S)-2-(2-methylpyridin-4-yl)tetrahydro-2H-pyran-4-yl)pteridine]", "EC50": "< 50"}
{"smiles": "COc1ccc([C@H]2C[C@@H](c3nc(C45CC(C(F)(F)F)(C4)C5)c4nc(C)c(C)nc4n3)CCO2)cn1", "note": "[Example 141, 2-((2R,4S)-2-(6-methoxypyridin-3-yl)tetrahydro-2H-pyran-4-yl)-6,7-dimethyl-4-(3-(trifluoromethyl)bicyclo[1.1.1]pentan-1-yl)pteridine]", "EC50": "< 50"}
{"smiles": "Cc1nc2cc([C@@H]3CCO[C@@H](c4cnn(C5CC5)c4)C3)cc(-c3ccc(Cl)cc3F)c2nc1C", "note": "[Example 230, 5-(4-chloro-2-fluorophenyl)-7-((2R,4R)-2-(1-cyclopropyl-1H-pyrazol-4-yl)tetrahydro-2H-pyran-4-yl)-2,3-dimethylquinoxaline]", "EC50": "3000 to 100000"}
{"smiles": "Cc1nc2nc(N3CCO[C@H](c4cnn(C5CC5)c4)C3)nc(-c3ccc4c(c3)CC4)c2nc1C", "note": "[Example 242, (R)-4-(4-(bicyclo[4.2.0]octa-1,3,5-trien-3-yl)-6,7-dimethylpteridin-2-yl)-2-(1-cyclopropyl-1H-pyrazol-4-yl)morpholine]", "EC50": "< 50"}
{"smiles": "[2H]C1([2H])C[C@@H](c2nc(-c3ccc(Cl)cc3F)c3nc(C)c(C)nc3n2)C[C@@]([2H])(c2cnn(C3CC3)c2)O1", "note": "[Example 193, 4-(4-chloro-2-fluorophenyl)-2-((2S,4R)-2-(1-cyclopropyl-1H-pyrazol-4-yl)tetrahydro-2H-pyran-4-yl-2,6,6-d3)-6,7-dimethylpteridine]", "EC50": "50 to 500"}
{"smiles": "Fc1ccc(-c2nc([C@H]3CCO[C@@H](c4cnn(C5CC5)c4)C3)cc3nc4c(nc23)COC4)c(F)c1", "note": "[Example 238, 7-((2R,4S)-2-(1-cyclopropyl-1H-pyrazol-4-yl)tetrahydro-2H-pyran-4-yl)-5-(2,4-difluorophenyl)-1,3-dihydrofuro[3,4-b]pyrido[3,4-e]pyrazine]", "EC50": "50 to 500"}
{"smiles": "Cc1nc2nc([C@H]3CCO[C@@H](c4cccn(C)c4=O)C3)nc(-c3ccc(F)cc3F)c2nc1C", "note": "[Example 203]", "EC50": "3000 to 100000"}
{"smiles": "Cc1nc2nc([C@H]3CCO[C@@H](c4cnn(C5CC5)c4)C3)nc(C3CCC(F)(F)CC3)c2nc1C", "note": "[Example 180, 2-((2R,4S)-2-(1-cyclopropyl-1H-pyrazol-4-yl)tetrahydro-2H-pyran-4-yl)-4-(4,4-difluorocyclohexyl)-6,7-dimethylpteridine]", "EC50": "< 50"}
{"smiles": "Cc1cc([C@H]2C[C@@H](c3nc(-c4cc(F)c(Cl)c(F)c4)c4nc(C)c(C)nc4n3)CCO2)ccn1", "note": "(racemic) [Example 84, 4-(4-chloro-3,5-difluoro-phenyl)-6,7-dimethyl-2-[(2R,4S)-2-(2-methyl-4-pyridyl)tetrahydropyran-4-yl]pteridine]", "EC50": "< 50"}
{"smiles": "Cc1ccc2c(-c3ccc(F)cc3F)nc([C@H]3CCO[C@@H](c4cnn(C5CC5)c4)C3)nc2n1", "note": "[Example 215, 2-((2R,4S)-2-(1-cyclopropyl-1H-pyrazol-4-yl)tetrahydro-2H-pyran-4-yl)-4-(2,4-difluorophenyl)-7-methylpyrido[2,3-d]pyrimidine]", "EC50": "50 to 500"}
{"smiles": "[2H]C([2H])([2H])c1nc2nc([C@@H]3CCO[C@H](c4cnn(C([2H])([2H])[2H])c4)C3)nc(-c3ccc(C)cc3)c2nc1C([2H])([2H])[2H]", "note": "[Example 172, 6,7-bis(methyl-d3)-2-((2S,4R)-2-(1-(methyl-d3)-1H-pyrazol-4-yl)tetrahydro-2H-pyran-4-yl)-4-(p-tolyl)pteridine]", "EC50": "3000 to 100000"}
{"smiles": "Cc1ccc2c(-c3ccc(F)cc3F)cc([C@H]3CCO[C@@H](c4cnn(C5CC5)c4)C3)nc2n1", "note": "[Example 231]", "EC50": "50 to 500"}
{"smiles": "Cc1nc2nc([C@H]3CCO[C@@H](c4cnn(C5CCC5)c4)C3)nc(-c3ccc(F)cc3F)c2nc1C", "note": "[Example 148, 2-((2R,4S)-2-(1-cyclobutyl-1H-pyrazol-4-yl)tetrahydro-2H-pyran-4-yl)-4-(2,4-difluorophenyl)-6,7-dimethylpteridine]", "EC50": "< 50"}
{"smiles": "Cc1nc2nc([C@@H]3C[C@@H](C)O[C@@H](c4cnn(C5CC5)c4)C3)nc(-c3cc(F)c(F)cc3F)c2nc1C", "note": "[Example 158, 2-((2R,4R,6R)-2-(1-cyclopropyl-1H-pyrazol-4-yl)-6-methyltetrahydro-2H-pyran-4-yl)-6,7-dimethyl-4-(2,4,5-trifluorophenyl)pteridine]", "EC50": "50 to 500"}
{"molecular_target": "T1, human TREM2", "experiment": "TREM2 agonist potency by cellular phosphorylation of Syk (AlphaLisa) in HEK293T-hTREM2 cells", "type": "cell-based", "conditions": "HEK293 cells expressing human TREM2 and DAP12, Table D-2", "procedure": "as §1, §2, §3, §4", "units": {"EC50": "nM"}}
{"smiles": "Cc1nc2nc(N3C[C@H](CO)O[C@H](c4cnn(C5CC5)c4)C3)nc(-c3ccc(F)cc3F)c2nc1C", "note": "[Example I-1334, [(2R,6R)-6-(1-cyclopropylpyrazol-4-yl)-4-[4-(2,4-difluorophenyl)-6,7-dimethyl-pteridin-2-yl]morpholin-2-yl]methanol]", "EC50": "3000 to 100000"}
{"smiles": "Cc1nc2nc(-c3ccc(Cl)cc3F)cc(N3C[C@@H](C)O[C@@H](c4cnn(C5CC5)c4)C3)c2nc1C", "note": "[Example I-1081, (2S,6R)-4-[6-(4-chloro-2-fluoro-phenyl)-2,3-dimethyl-pyrido[2,3-b]pyrazin-8-yl]-2-(1-cyclopropylpyrazol-4-yl)-6-methyl-morpholine]", "EC50": "500 to 3000"}
{"smiles": "COCn1cc([C@H]2CN(c3nc(-c4ccc(F)cc4F)c4cc(C)c(C)nc4n3)C[C@@H](C)O2)cn1", "note": "[Example I-1226, (2S,6R)-4-[4-(2,4-difluorophenyl)-6,7-dimethyl-pyrido[2,3-d]pyrimidin-2-yl]-2-[1-(methoxymethyl)pyrazol-4-yl]-6-methyl-morpholine]", "EC50": "< 50"}
{"smiles": "Cc1nc2nc([C@@H]3CCO[C@H](c4cnc(C5CC5)o4)C3)nc(-c3ccc(F)cc3F)c2nc1C", "note": "[Example I-1700, 2-cyclopropyl-5-[(2S,4R)-4-[4-(2,4-difluorophenyl)-6,7-dimethyl-pteridin-2-yl]tetrahydropyran-2-yl]oxazole]", "EC50": "50 to 500"}
{"smiles": "Cc1cc(F)c(-c2nc([C@H]3CCO[C@@H](c4cnn(C5CC5)c4)C3)nc3nc(C)c(C)nc23)cc1F", "note": "[Example I-1572, 2-[(2R,4S)-2-(1-cyclopropylpyrazol-4-yl)tetrahydropyran-4-yl]-4-(2,5-difluoro-4-methyl-phenyl)-6,7-dimethyl-pteridine]", "EC50": "< 50"}
{"smiles": "Cc1nc2nc(-c3cc(-c4cnn(C5CC5)c4)c(=O)n(C)c3)nc(-c3ccc(F)cc3F)c2nc1C", "note": "[Example I-1461, 3-(1-cyclopropyl-1H-pyrazol-4-yl)-5-(4-(2,4-difluorophenyl)-6,7-dimethylpteridin-2-yl)-1-methylpyridin-2(1H)-one]", "EC50": "50 to 500"}
{"smiles": "CCCc1ccc(-c2nc([C@H]3CCO[C@@H](c4cnn(C5CC5)c4)C3)nc3nc(C)c(C)nc23)c(F)c1", "note": "[Example I-1197]", "EC50": "50 to 500"}
{"smiles": "Cc1nc2nc(N3CCCO[C@H](c4cnn(C5CC5)c4)C3)nc(-c3ccc(F)cc3F)c2nc1C", "note": "(stereo in doubt) [Example I-1144, 2-(1-cyclopropyl-1H-pyrazol-4-yl)-4-(4-(2,4-difluorophenyl)-6,7-dimethylpteridin-2-yl)-1,4-oxazepane]", "EC50": "500 to 3000"}
